# Source: US8299056B2 (Signal Pharmaceuticals, LLC, priority 2008, dated 2012)
# Biological target: T1, Syk (Homo sapiens, UniProt P43405)
# T1 construct: purchased Carna Biosciences
# Experiment: Syk HTRF assay
# Format: biochemical
# Settings: IC50 activity level, read-out: Activity Level
# Description: Test compounds were prepared at a concentration of 1.5 mM in DMSO followed by 3-fold dilutions in Greiner […] polypropylene plates. A 1:4 dilution of compounds by 8 μL/well transfer from the polypropylene plates to 24 μL/well Assay Buffer in Costar 3710 384 well black plates was then performed. Kinases (13 μL/well) or Assay Buffer only (background controls; 50 mM HEPES pH 7.6, 1 mM DTT, 10 mM MgCl2, 0.01% Triton X100, 0.01% BSA and 0.1 mM EDTA) were added to Costar 3710 384-well black plates for the HTRF assays (Carna Biosciences) and compound was added from the 1:4 dilution plate. Syk start mix (87.5 μM ATP, 80 nM Substrate Peptide (American Peptide Company 332722) was added and the mixture was incubated at room temperature for 1 hour. Syk Stop Solution (120 mM EDTA in dilution buffer) was then added to the Syk HTRF assay plate and incubated at room temperature on a shaker for 2 minutes. Syk Antibody Mix (4.86 μg/mL DyLight 647 Streptavidin (Pierce 21824); 1 μg/mL Lance Eu-Anti-Phosphotyrosine (PerkinElmer AD0069)) was added to the Syk HTRF assay plate and the mixture was further incubated at room temperature for >4 h. Time resolved fluorescence was read in assay plates on a PerkinElmer EnVision. HTRF assays were performed using 320 nm excitation, 60 μs delay, 665 nm and 615 nm emission. Data was expressed by division of 665 nm by 615 nm emissions.
row,IC50 [nM],Compound
1,500 to 1000,"NCCN1Cc2cc(-c3cccc4nc(Nc5ccccc5)nn34)ccc2C1=O [Example 494, 2-(2-aminoethyl)-5-(2-(phenylamino)-[1,2,4]triazolo[1,5-a]pyridin-5-yl)isoindolin-1-one]"
2,0.005 to 250,"Fc1ccc(Nc2nc3cccc(-c4ccc5cn[nH]c5c4)n3n2)cc1 [Example 436, N-(4-fluorophenyl)-5-(1H-indazol-6-yl)-[1,2,4]triazolo[1,5-a]pyridin-2-amine]"
3,0.005 to 250,"COCc1n[nH]c2cc(Nc3nc4cccc(CN5CCNC(=O)C5)n4n3)ccc12 [Example 533, 4-((2-(3-(methoxymethyl)-1H-indazol-6-ylamino)-[1,2,4]triazolo[1,5-a]pyridin-5-yl)methyl)piperazin-2-one]"
4,500 to 1000,COc1cc(-c2cccc3nc(Nc4ccccc4)nn23)ccn1 [Example 521]

# The remaining lines, values behind:
row,Compound,IC50 [nM]
1,"CC(C)Nc1cccc2nc(Nc3ccc4c(c3)NC(=O)C4(C)C)nn12 [Example 549, 6-(5-(isopropylamino)-[1,2,4]triazolo[1,5-a]pyridin-2-ylamino)-3,3-dimethylindolin-2-one]",0.005 to 250
2,"c1ccc(Nc2nc3cccc(N[C@@H]4CCNC4)n3n2)cc1 [Example 474, (R)-N^2-phenyl-N^5-(pyrrolidin-3-yl)-[1,2,4]triazolo[1,5-a]pyridin-2,5-diamine]",500 to 1000
3,"NC(=O)c1ccc(Cc2cccc3nc(Nc4ccccc4)nn23)cc1 [Example 452, 4-((2-(phenylamino)-[1,2,4]triazolo[1,5-a]pyridin-5-yl)methyl)benzamide]",1000 to 10000
4,"NC(=O)[C@H]1CC[C@H](Oc2cccc3nc(Nc4ccc(C(F)(F)F)cc4)nn23)CC1 (stereo in doubt) [Example 405, trans-4-(2-(4-(trifluoromethyl)phenylamino)-[1,2,4]triazolo[1,5-a]pyridin-5-yloxy)cyclohexanecarboxamide]",1000 to 10000
5,"c1ccc(Nc2nc3cccc(-c4ccc5nc(CN6CCCC6)[nH]c5c4)n3n2)cc1 [Example 428, N-phenyl-5-(2-(pyrrolidin-1-ylmethyl)-1H-benzo[d]imidazol-6-yl)-[1,2,4]triazolo[1,5-a]pyridin-2-amine]",0.005 to 250
6,"COCc1nc2ccc(-c3cccc4nc(Nc5ccc(C(F)(F)F)cc5)nn34)cc2[nH]1 [Example 401, 5-(2-(methoxymethyl)-1H-benzo[d]imidazol-6-yl)-N-(4-(trifluoromethyl)phenyl)-[1,2,4]triazolo[1,5-a]pyridin-2-amine]",0.005 to 250
7,"Fc1ccc(Nc2nc3cccc(NC4CCCCNC4)n3n2)cc1 (centres unmarked) [Example 427, N^5-(azepan-3-yl)-N^2-(4-fluorophenyl)-[1,2,4]triazolo[1,5-a]pyridine-2,5-diamine]",250 to 500
8,"Cc1cc(Nc2nc3cccc(NC4CCOCC4)n3n2)cnc1N1CCOCC1 [Example 547, N^2-(5-methyl-6-morpholinopyridin-3-yl)-N^5-(tetrahydro-2H-pyran-4-yl)-[1,2,4]triazolo[1,5-a]pyrridine-2,5-diamine]",500 to 1000
9,"CNCc1nc2ccc(-c3cccc4nc(Nc5ccccc5)nn34)cc2o1 [Example 424, 5-(2-((methylamino)methyl)benzo[d]oxazol-6-yl)-N-phenyl-[1,2,4]triazolo[1,5-a]pyridin-2-amine]",500 to 1000
10,"OC(c1cccc2nc(Nc3ccccc3)nn12)C1CCNCC1 (centres unmarked) [Example 502, (2-(phenylamino)-[1,2,4]triazolo[1,5-a]pyridin-5-yl)(piperidin-4-yl)methanol]",250 to 500

# Same assay, conditions: activity levels A-D, read-out: Activity Level (IC50 in the Syk HTRF assay)
row,IC50 [nM],Compound
1,1000 to 10000,"CNC(=O)CNCc1cccc2nc(Nc3ccc(C(F)(F)F)cc3)nn12 [Example 213, N-methyl-2-((2-(4-(trifluoromethyl)phenylamino)-[1,2,4]triazolo[1,5-a]pyrridin-5-yl)methylamino)acetamide]"
2,500 to 1000,"NC(=O)c1ccc(Nc2nc3cccc(N[C@H]4CC[C@@H](O)CC4)n3n2)cn1 [Example 370, cis-5-(5-(4-hydroxycyclohexylamino)-[1,2,4]triazolo[1,5-a]pyridin-2-ylamino)picolinamide]"
3,1000 to 10000,"Oc1cccc(Nc2nc3cccc(N[C@H]4CC[C@@H](O)CC4)n3n2)n1 [Example 305, cis-6-(5-(4-hydroxycyclohexylamino)-[1,2,4]triazolo[1,5-a]pyridin-2-ylamino)pyridin-2-ol]"
4,0.005 to 250,"O[C@@H]1CCC[C@@H](Nc2cccc3nc(Nc4ccc(C(F)(F)F)cc4)nn23)C1 (single isomer, unassigned; enantiomer 1) [Example 225, trans-3-(2-(4-(trifluoromethyl)phenylamino)-[1,2,4]triazolo[1,5-a]pyridin-5-ylamino)cyclohexanol (enantiomer 1)]"

# The remaining lines, values behind:
row,Compound,IC50 [nM]
1,"FC(F)(F)c1ccc(Nc2nc3cccc(CN4CCNCC4)n3n2)cc1 [Example 393, 5-(piperazin-1-ylmethyl)-N-(4-(trifluoromethyl)phenyl)-[1,2,4]triazolo[1,5-a]pyridin-2-amine]",0.005 to 250
2,"FC(F)(F)c1ccc(Nc2nc3cccc(OC4CCNCC4)n3n2)cc1 [Example 352, 5-(piperidin-4-yloxy)-N-(4-(trifluoromethyl)phenyl)-[1,2,4]triazolo[1,5-a]pyridin-2-amine]",1000 to 10000
3,"OC1CCN(Cc2cccc3nc(Nc4ccc(C(F)(F)F)cc4)nn23)C1 (stereo in doubt) [Example 335, (R)-1-((2-(4-(trifluoromethyl)phenylamino)-[1,2,4]triazolo[1,5-a]pyridin-5-yl)methyl)pyrrolidin-3-ol]",1000 to 10000
4,"OC[C@H]1CCN(c2cccc3nc(Nc4ccc(C(F)(F)F)cc4)nn23)C1 [Example 327, (S)-(1-(2-(4-(trifluoromethyl)phenylamino)-[1,2,4]triazolo[1,5-a]pyridin-5-yl)pyrrolidin-3-yl)methanol]",250 to 500
5,"CC(C)Nc1cccc2nc(Nc3ccc(C(F)(F)F)cc3)nn12 [Example 330, N^5-isopropyl-N^2-(4-(trifluoromethyl)phenyl)-[1,2,4]triazolo[1,5-a]pyridin-2,5-diamine]",1000 to 10000
6,"Nc1n[nH]c2cc(Nc3nc4cccc(CC5CCC(O)CC5)n4n3)ccc12 (centres unmarked) [Example 208, 4-((2-(3-amino-1H-indazol-6-ylamino)-[1,2,4]triazolo[1,5-a]pyridin-5-yl)methyl)cyclohexanol]",0.005 to 250
7,"OC[C@@H]1CCCN1c1cccc2nc(Nc3ccc(C(F)(F)F)cc3)nn12 [Example 289, (S)-(1-(2-(4-(trifluoromethyl)phenylamino)-[1,2,4]triazolo[1,5-a]pyridin-5-yl)pyrrolidin-2-yl)methanol]",1000 to 10000
8,"O=C1CN(Cc2cccc3nc(Nc4ccc(C(F)(F)F)cc4)nn23)CN1 [Example 301, 1-((2-(4-(trifluoromethyl)phenylamino)-[1,2,4]triazolo[1,5-a]pyridin-5-yl)methyl)imidazolidin-4-one]",1000 to 10000

# Same assay, conditions: read-out: Activity Level (Syk HTRF assay IC50)
row,IC50 [nM],Compound
1,0.005 to 250,"Cc1n[nH]c2ccc(Nc3nc4cccc(CC5CCOCC5)n4n3)cc12 [compound 116, N-(3-methyl-1H-indazol-5-yl)-5-((tetrahydro-2H-pyran-4-yl)methyl)-[1,2,4]triazolo[1,5-a]pyridin-2-amine]"
2,0.005 to 250,Oc1cccc(-c2cccc3nc(Nc4ccccc4)nn23)c1 [Example 92]
3,0.005 to 250,"CN(c1cccc2nc(Nc3ccc4c(c3)NC(=O)C4(C)C)nn12)C1CCOCC1 [Example 158, 3,3-dimethyl-6-(5-(methyl(tetrahydro-2H-pyran-4-yl)amino)-[1,2,4]triazolo[1,5-a]pyridin-2-ylamino)indolin-2-one]"
4,0.005 to 250,Nc1n[nH]c2cc(Nc3nc4cccc(-c5ccccc5)n4n3)ccc12 [compound 57]
5,0.005 to 250,"CN1C(=O)C(C)(C)c2ccc(Nc3nc4cccc(CN5CCNC(=O)C5)n4n3)cc21 [Example 136, 1,3,3-trimethyl-6-(5-((3-oxopiperazin-1-yl)methyl)-[1,2,4]triazolo[1,5-a]pyridin-2-ylamino)inolin-2-one]"

# Continued, compound first:
row,Compound,IC50 [nM]
1,"O=C1NCc2cc(Nc3nc4cccc(Cc5ccnc(O)c5)n4n3)ccc21 [Example 157, 5-(5-((2-hydroxypyridin-4-yl)methyl)-[1,2,4]triazolo[1,5-a]pyridin-2-ylamino)isoindolin-1-one]",0.005 to 250
2,"CC1(C)C(=O)Nc2cc(Nc3nc4cccc(N[C@H]5CC[C@@](C)(O)CC5)n4n3)ccc21 [Example 163, cis-6-(5-(4-hydroxy-4-methylcyclohexylamino)-[1,2,4]triazolo[1,5-a]pyridin-2-ylamino)-3,3-dimethylindolin-2-one]",0.005 to 250
3,"CC1(C)C(=O)Nc2cc(Nc3nc4cccc(O[C@H]5CCOC5)n4n3)ccc21 [compound 133, (S)-3,3-dimethyl-6-(5-(tetrahydrofuran-3-yloxy)-[1,2,4]triazolo[1,5-a]pyridin-2-ylamino)indolin-2-one]",250 to 500
4,"CN1C(=O)C(C)(C)c2ccc(Nc3nc4cccc(CC5CCOCC5)n4n3)cc21 [Example 143, 1,3,3-trimethyl-6-(5-((tetrahydro-2H-pyran-4-yl)methyl)-[1,2,4]triazolo[1,5-a]pyridin-2-ylamino)indolin-2-one]",0.005 to 250
